Read-outs that look alike come from different tables or passages of the source.
Tests used:
HRV-14 = experiment: Antirhinoviral H1-HeLa cell culture assay (XTT cell protection, EC50), HRV-14; format: cell-based, human rhinovirus (HRV) serotype-14 in H1-HeLa cells; conditions: Rhinovirus B, HRV14, H1-HeLa
In short: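 H1-HeLa cells were infected with HRV-14 at m.o.i. 0.13, or mock-infected, and incubated with compound for two days. Cell protection was read by XTT/PMS formazan absorbance at 450/650 nm to give EC50. CC50 came from mock-infected cells, and TI = CC50/EC50.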

H1-HeLa cells = experiment: Cytotoxicity (CC50) in mock-infected H1-HeLa cells, XTT dye reduction; format: cell-based, human
In short: (§1)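 H1-HeLa cells mock-infected, read by XTT/PMS formazan at 450/650 nm.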

[1] = as above; format: cell-based, human; conditions: human, H1-HeLa cells, mock-infected; line of HRV-14
In short: as §1

[2] = test system: strains of human rhinovirus (HRV); experiment: Antirhinoviral H1-HeLa cell culture assay (XTT cell protection, EC50), other HRV strains; format: cell-based, human rhinovirus in H1-HeLa cells
In short: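 H1-HeLa cells infected, or mock-infected, were incubated with compounds for two days. Cell protection measured by XTT/PMS formazan absorbance at 450/650 nm; TI taken as CC50 divided by EC50.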

[3] = molecular target: T1, Recombinant rhinovirus 3C protease, serotype 14 (Human rhinovirus 14, UniProt P03303); experiment: Inhibition of rhinovirus 3C protease (FRET assay, kobs/[I]), serotype 14; format: biochemical; conditions: pH 7.6; HRV-14; read-out: kobs/[I] (3C protease inhibition activity)
T1 construct: Recombinant rhinovirus 3C proteases; made in house
In short: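 Enzyme-start FRET assay with ~1 μM DABCYL/EDANS peptide substrate and 50-100 nM recombinant protease in 50 mM tris pH 7.6, 1 mM EDTA, 2% DMSO. Cleavage followed as fluorescence increase; kobs/[I] derived from progress curves.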

[4] = Human rhinovirus sp., HRV3, H1-HeLa, HRV-3, read-out: EC50
[5] = Human rhinovirus sp., HRV9, H1-HeLa, HRV-9, read-out: EC50
[6] = Human rhinovirus sp., HRV16, H1-HeLa, HRV-16, read-out: EC50
[7] = Human rhinovirus sp., HRV25, H1-HeLa, HRV-25, read-out: EC50
[8] = Human rhinovirus sp., HRV39, H1-HeLa, HRV-39, read-out: EC50
[9] = Human rhinovirus sp., HRV87, H1-HeLa, HRV-87, read-out: EC50
[10] = H1-HeLa, HRV-1A, read-out: EC50
[11] = Human rhinovirus sp., HRV10, H1-HeLa, HRV-10, read-out: EC50
[12] = H1-HeLa, HRV-23, read-out: EC50
[13] = Human rhinovirus sp., H1-HeLa, HRV-Hanks, read-out: EC50
[14] = Human rhinovirus sp., HRV11, H1-HeLa, HRV-11, read-out: EC50
[15] = Human rhinovirus sp., HRV13, H1-HeLa, HRV-13, read-out: EC50
[16] = Human rhinovirus sp., HRV19, H1-HeLa, HRV-19, read-out: EC50
[17] = Human rhinovirus sp., HRV78, H1-HeLa, HRV-78, read-out: EC50

T1 sequence (P03303 1538-1719): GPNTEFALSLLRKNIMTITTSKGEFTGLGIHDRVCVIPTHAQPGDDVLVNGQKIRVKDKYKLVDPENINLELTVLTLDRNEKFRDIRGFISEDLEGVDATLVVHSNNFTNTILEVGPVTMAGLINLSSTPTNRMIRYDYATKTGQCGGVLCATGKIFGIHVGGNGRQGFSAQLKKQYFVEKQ

| Structure (SMILES) | EC50 (HRV-14) [nM] | CC50 (H1-HeLa cells; line of HRV-2) [nM] | CC50 (H1-HeLa cells; line of HRV-3) [nM] | CC50 (H1-HeLa cells; line of HRV-9) [nM] | CC50 (H1-HeLa cells; line of HRV-16) [nM] | CC50 (H1-HeLa cells; line of HRV-25) [nM] | CC50 (H1-HeLa cells; line of HRV-39) [nM] | CC50 (H1-HeLa cells; line of HRV-87) [nM] | CC50 at 2 days [1] [nM] | EC50 ([2]; H1-HeLa, HRV-2, read-out: EC50) [nM] | EC50 [2, 4] [nM] | EC50 [2, 5] [nM] | EC50 [2, 6] [nM] | EC50 [2, 7] [nM] | EC50 [2, 8] [nM] | kinact/KI [3] [M⁻¹ s⁻¹] | CC50 (H1-HeLa cells; line of HRV-1A) [nM] | CC50 (H1-HeLa cells; line of HRV-10) [nM] | EC50 [2, 10] [nM] | EC50 [2, 11] [nM] | also measured |
| --- | --- | --- | --- | --- | --- | --- | --- | --- | --- | --- | --- | --- | --- | --- | --- | --- | --- | --- | --- | --- | --- |
| CC[C@@H](C(=O)N[C@H](/C=C/C(=O)OC(C)(C)C)C[C@@H]1CCNC1=O)n1cccc(NC(=O)c2cc(C)on2)c1=O [Compound 34, trans-(2′S,3″″S,4S)-4-(2′-{3″-[(5′″-Methylisoxazole-3′″-carbonyl)amino]-2″-oxo-2″H-pyridin-1″-yl}butyrylamino)-5-(2″″-oxopyrrolidin-3″″-yl)pent-2-enoic Acid tert-Butyl Ester] | 122 | > 10000 | > 10000 | > 10000 | > 10000 | > 10000 | > 10000 | > 10000 | > 10000 | 154 | 61 | 593 | 543 | 923 | 441 | 45100 |  |  |  |  | EC50 [2, 9]: 33 nM |
| CCOC(=O)/C=C/[C@H](C[C@@H]1CCNC1=O)NC(=O)[C@@H]1CCc2ccc(NC(=O)c3cc(C)on3)c(=O)n21 [Compound 37, trans-(3′S,3′″S,4S)-4-({6′-[(5″-Methylisoxazole-3″-carbonyl)amino]-5′-oxo-1′,2′,3′,5′-tetrahydroindolizine-3′-carbonyl}amino)-5-(2′″-oxopyrrolidin-3′″-yl)-pent-2-enoic Acid Ethyl Ester] | 162 | > 10000 | > 10000 | > 10000 | > 10000 | > 10000 | > 10000 | > 10000 | > 10000 | 37 | 43 | 121 | 72 |  | 16 | 177000 | > 10000 | > 10000 | 108 | 41 | EC50 ([2]; Human rhinovirus sp., HRV25, H1-HeLa): 162 nM; EC50 [2, 9]: 58 nM |
| CCOC(=O)/C=C/[C@H](C[C@@H]1CCNC1=O)NC(=O)[C@@H]1CCc2c(Cl)cc(NC(=O)c3cc(C)on3)c(=O)n21 [Compound 39, trans-(3′S,3′″S,4S)-4-({8′-Chloro-6′-[(5″-methylisoxazole-3″-carbonyl)amino]-5′-oxo-1′,2′,3′,5′-tetrahydroindolizine-3′-carbonyl}amino)-5-(2′″-oxopyrrolidin-3′″-yl)-pent-2-enoic Acid Ethyl Ester] | 40 | > 10000 | > 10000 | > 10000 | > 10000 | > 10000 | > 10000 | > 10000 | > 10000 | 16 | 39 | 48 | 57 | 107 | 48 | 200000 | > 10000 | > 10000 | 42 | 88 | EC50 [2, 9]: 17 nM |
| C#CC[C@@H](C(=O)N[C@H](/C=C/C(=O)OC1CCCC1)C[C@@H]1CCNC1=O)n1cccc(NC(=O)c2cc(C)on2)c1=O [Compound 40, trans-(2′S,3′″″S,4S)-4-[2′-(3″-{[1′″-(5″″-Methylisoxazol-3″″-yl)methanoyl]amino}-2′″-oxo-2′″H-pyridin-1′″-yl)pent-4″-ynoylamino]-5-(2′″″-oxopyrrolidin-3′″″-yl)pent-2-enoic Acid Cyclopentyl Ester] | 27 | > 10000 | > 10000 | > 10000 | > 10000 | > 10000 | > 10000 | > 10000 | > 10000 | 52 | 56 | 219 | 177 | 490 | 163 | 186000 |  |  |  |  | CC50 (H1-HeLa cells; line of HRV-11): > 10000 nM; CC50 (H1-HeLa cells; line of HRV-13): > 10000 nM; CC50 (H1-HeLa cells; line of HRV-19): > 10000 nM; CC50 (H1-HeLa cells; line of HRV-23): > 10000 nM; CC50 (H1-HeLa cells; line of HRV-78): > 10000 nM; CC50 (H1-HeLa cells; line of HRV-Hanks): > 10000 nM; EC50 [2, 12]: 55 nM; EC50 [2, 13]: 115 nM; EC50 [2, 14]: 6 nM; EC50 [2, 15]: 148 nM; EC50 [2, 16]: 60 nM; EC50 [2, 17]: 123 nM; EC50 [2, 9]: 83 nM |
| C#CC[C@@H](C(=O)N[C@H](/C=C(\C)C(=O)OCC)C[C@@H]1CCNC1=O)n1cccc(NC(=O)c2cc(C)on2)c1=O [Compound 44, trans-(2′S,3′″″S,4S)-2-Methyl-4-[2′-(3″-{[1′″-(5″″-methylisoxazol-3″″-yl)methanoyl]amino}-2′″-oxo-2′″H-pyridin-1′″-yl)pent-4″-ynoylamino]-5-(2′″″-oxopyrrolidin-3′″″-yl)pent-2-enoic Acid Ethyl Ester] | 1460 | > 10000 |  |  | > 10000 | > 10000 | > 10000 |  | > 10000 | 1180 |  |  | 1090 | 1220 | > 1000 | 12500 |  | > 10000 |  | 562 |  |
| Cc1cc(C(=O)Nc2cccn([C@@H](Cc3ccc(F)c(F)c3)C(=O)N[C@H](/C=C/C(=O)OC(C)(C)C)C[C@@H]3CCNC3=O)c2=O)no1 [Compound 46] | 6 | > 10000 | > 10000 | > 10000 | > 10000 | > 10000 | > 10000 |  | > 10000 | 145 | 45 | 151 | 160 | 188 | 227 | 350000 | > 10000 | > 10000 | 182 | 135 | CC50 (H1-HeLa cells; line of HRV-11): > 10000 nM; CC50 (H1-HeLa cells; line of HRV-13): > 10000 nM; CC50 (H1-HeLa cells; line of HRV-19): > 10000 nM; CC50 (H1-HeLa cells; line of HRV-23): > 10000 nM; CC50 (H1-HeLa cells; line of HRV-78): > 10000 nM; CC50 (H1-HeLa cells; line of HRV-Hanks): > 10000 nM; EC50 [2, 12]: 11 nM; EC50 [2, 13]: 5 nM; EC50 [2, 14]: 3 nM; EC50 [2, 15]: 78 nM; EC50 [2, 16]: 20 nM; EC50 [2, 17]: 25 nM |
| Cc1cc(C(=O)Nc2cccn([C@@H](Cc3ccc(F)c(F)c3)C(=O)N[C@H](/C=C/C(=O)OC3CCCC3)C[C@@H]3CCNC3=O)c2=O)no1 [Compound 49, trans-(2′S,3″″″S,4S)-4-[3′-(3″,4″-Difluorophenyl)-2′-(3′″-{[1″″-(5′″″-methylisoxazol-3′″″-yl)methanoyl]amino}-2″″-oxo-2″″H-pyridin-1″″-yl)propanoylamino]-5-(2″″″-oxopyrrolidin-3″″″-yl)pent-2-enoic Acid Cyclopentyl Ester] | 4 | > 10000 | > 10000 | > 10000 | > 10000 | > 10000 | > 10000 |  | > 10000 | 83 | 41 | 95 | 32 | 371 | 145 | 1.2e+06 | > 10000 | > 10000 | 131 | 76 |  |
| C#CC[C@@H](C(=O)N[C@H](/C=C/C(=O)OC(C)C)C[C@@H]1CCNC1=O)n1cccc(NC(=O)c2cc(C)on2)c1=O [Compound 50, trans-(2′S,3′″″S,4S)-4-[2′-(3″- {[1′″-(5″″-Methylisoxazol-3″″-yl)methanoyl]amino}-2′″-oxo-2′″H-pyridin-1′″-yl)pent-4″-ynoylamino]-5-(2′″″-oxopyrrolidin-3′″″-yl)pent-2-enoic Acid Isopropyl Ester] | 68 | > 10000 | > 10000 | > 10000 | > 10000 | > 10000 | > 10000 |  | > 10000 | 105 | 117 | 122 | 185 | 371 | > 1000 | 100000 | > 10000 | > 10000 | 200 | 750 |  |
